Assay results: patent US4963570A, “1-(acetylaminophenyl)-2-aminopropanone derivatives and pharmaceutical compositions thereof” (Laboratoire L. Lafon, priority 1983, dated 1990)
Entries after “also recorded” stand apart in the source; their conditions may differ. Counter-ions that a name gives are not always drawn.

Assays:
[1] = system: male mice; experiment: acute toxicity, intraperitoneal (lethal doses); assay type: in vivo, mouse; settings: i.p.
Protocol: By intraperitoneal administration to male mice, the LD-30 (lethal dose for 30% of the animals tested) is of the order of 128 mg/kg and the LD-50 is of the order of about 200 mg/kg.

[2] = system: mice; experiment: motility reduced by habituation to the enclosure; assay type: in vivo, mouse; settings: i.p., strong doses
Protocol: After they have stayed in the actimeters for 18 hours, the mice (6 per dose, 12 control animals) receive CRL 41 224. They are immediately returned to their respective enclosures and, half an hour later, their motility is recorded for 30 minutes.

[3] = system: immunological properties; experiment: immunological properties, overall; assay type: in vivo; settings: dose not stated
From the text: The present 1-(acetylaminophenyl)-2-aminopropanone derivatives are useful in therapy. They all act on the CNS, more precisely as antidepressants. They have a stimulant or excitant component in their neuropsychopharmacological profile.

[4] = system: delayed hypersensitivity to the red blood corpuscles of sheep; experiment: delayed hypersensitivity to the red blood corpuscles of sheep (Miller); assay type: in vivo
[5] = system: mice; experiment: motility reduced by hypoxic aggression; assay type: in vivo, mouse; settings: i.p., strong doses
Protocol: Half an hour after they have received CRL 41 224, the mice (10 per dose, 20 control animals) are subjected to acute hypobaric anoxia [pressure reduction of 600 mm Hg (i.e. about 8×10^4 Pa) in 90 seconds; release of vacuum in 45 seconds] and are then placed in an actimeter, where their motility is recorded for 10 minutes.

[6] = system: mice; experiment: interaction with oxotremorine; assay type: in vivo, mouse; settings: i.p., strong/high doses
Protocol: CRL 41 224 is administered to groups of 6 mice 0.5 hour before the intraperitoneal injection of 0.5 mg/kg of oxotremorine.

[7] = system: mice; experiment: interaction with apomorphine in mice; assay type: in vivo, mouse; settings: i.p., strong doses
Protocol: Groups of 6 mice receive CRL 41 224 0.5 hour before the subcutaneous injection of 1 or 16 mg/kg of apomorphine.

[8] = system: CNS; experiment: overall neuropsychopharmacological (CNS) profile; assay type: in vivo, mouse; rat; settings: i.p.
Protocol: The neuropsychopharmacological study of CRL 41 219 was carried out as indicated above for CRL 41 224.
The neuropsychopharmacological study of CRL 41 220 was carried out in accordance with the procedures given above for CRL 41 224.

[9] = system: mice; experiment: overall behavior and reactivities in mice; assay type: in vivo, mouse; settings: i.p.
Protocol: Groups of three animals are observed before and then 0.25 hour, 0.50 hour, 1 hour, 2 hours, 3 hours and 24 hours after the administration of CRL 41 224.

[10] = system: mice; experiment: interaction with reserpine; assay type: in vivo, mouse; settings: i.p., strong doses
Protocol: Four hours after the intraperitoneal injection of 2.5 mg/kg of reserpine, groups of 6 mice receive CRL 41 224.

[11] = system: rats; experiment: interaction with amphetamine; assay type: in vivo, rat; settings: i.p., strong doses
Protocol: Amphetamine (2 mg/kg) is injected intraperitoneally into groups of 6 rats 30 minutes after the administration of CRL 41 224.

[12] = system: mice; experiment: action on the behavioral despair; assay type: in vivo, mouse; settings: i.p., strong/high doses
From the text: Half an hour after they have received CRL 41 224, groups of 6 mice are placed in a beaker filled with water to a height of 6 cm. The total period of immobility between the 2nd and 6th minutes following immersion is noted.

[13] = system: mice; experiment: four plate test, traction and electric shock; assay type: in vivo, mouse; settings: i.p., strong/high dose
Protocol: The test is performed on groups of 10 mice 30 minutes after the administration of CRL 41 224.

[14] = system: spleen cells expressing a direct IgM antibody response; experiment: test for cells forming lysis areas (PFC IgM, Cunningham); assay type: in vivo, mouse; settings: 0.1, 10 and 100 mg/kg
Protocol: Immunological assays were carried out in order to point out the interest of CRL 41 240 as an immunomodulating agent. Specifically, the test used was the so-called test for cells forming lysis areas, described by A. J. […] et al. ("Further improvements in the plaque technique for detecting simple antibody forming cells"), Immunology 14, pages 599-601 (1968).
The test for cells forming lysis areas (or PFC IgM) explores the humoral immunity. Four days after immunization with a T-dependent antigen (in this case red blood corpuscles of sheep), the spleen cells expressing a direct IgM antibody response are counted. The mice used for this purpose are conventional female OF1 mice devoid of specific pathogenic organisms, weighing from 20 to 30 g and divided up into a control group of 14 animals and groups each containing 7 animals per dose and per product to be studied, administered orally on the same day as the antigen. An activity index I is calculated for each dose of product according to the following equation: [formula]
This test is performed at least twice for each dose of test product [C(control amimals), 0.01, 0.1, 10 and 100 mg/kg] and a statistical study is undertaken using the Student t test after variance analysis on the number of lyses per spleen.

Structure (SMILES): CC(=O)Nc1ccc(C(=O)C(C)N2CCSCC2)cc1 (stereo not shown) [CRL 41 247]
- LD-0 (maximum non-lethal dose) [1]: greater than 512 mg/kg
- LD-60 [1]: about 1000 mg/kg
- motor activity after habituation to the enclosure [2]: an increase in the motor activity of mice after habituation to their enclosure
- immunological properties, overall [3]: beneficial immunomodulating effects
- cell activity (technique of Miller et al.) ([4]; dose not stated): stimulates cell activity
- motor activity after acute hypoxia [5]: an increase in the motor activity of mice after habituation to their enclosure and after acute hypoxia
- hypothermia induced by oxotremorine [6]: very moderate antagonism of the hypothermia induced by apomorphine and oxotremorine
- hypothermia induced by apomorphine [7]: very moderate antagonism of the hypothermia induced by apomorphine
- overall action on the CNS ([8]; strong/high doses): discreet antidepressant effects; also recorded: stimulant effects
- hypothermia, temperature change ([9]; 256 mg/kg, 30 minutes after administration): -3.3 °C
- body temperature (hypothermia) ([9]; strong/high doses): hypothermia
- hypothermia induced by reserpine [10]: no antagonism towards the hypothermia induced by reserpine
- stereotypies induced by amphetamine [11]: potentiation of the stereotypies induced by amphetamine
- period of immobility of mice forcibly immersed [12]: a reduction in the period of immobility
- convulsant effects of electric shock [13]: a reduction in the convulsant effects of electric shock

Structure (SMILES): CC(=O)Nc1cccc(C(=O)C(C)N2CCCCC2)c1 (stereo not shown) [CRL 41 262, 1-(3-acetylaminophenyl)-2-piperidinopropanone hydrochloride]
- immunological properties, overall ([3]; hydrochloride): beneficial immunomodulating effects; also recorded: particularly valuable as an immunomodulator
- immunostimulant activity, delayed hypersensitivity ([4]; oral, 10 and 100 mg/kg): immunostimulant activity
- immunostimulant activity, PFC IgM test [14]: immunostimulant activity
- overall action on the CNS ([8]; mice and rats, dose not stated): antidepressant and stimulant effects on the CNS
